Laboratory results from US20240117431A1, “STEM-CELL BASED BIOMARKER DISCOVERY” (THE REGENTS OF THE UNIVERSITY OF CALIFORNIA, priority 2020, published 2024).

Tested on: GFP-3×MT-TgUPRT HEK293T cells co-cultured with mCherry cells
Experiment: Co-culture RT-qPCR enrichment of GFP transcript over mCherry
Assay type: cell-based
Procedure: FIGS. 10A, 10B, 100, 10D, 10E show characterizing the stringency of the 2 (5VU)-mutant TgUPRT pair. […] Cells were transfected with TgUPRT variants and incubated with 2 at 1 mM final concentration for 24h. 2 incorporation was imaged using two-step labeling (1) IEDDA using tetrazene-biotin then followed by Alexa488-streptavidin. […] Streptavidin-HRP (Strep-HRP) was used for assessment of biotin level resulting from clicked RNA, and methylene blue (MeBI) staining served as loading control. […] Cells were treated the same as in panel 10B and the RNA appended with biotin and enriched before RT RT-qPCR.
Co-culture of HEK cells containing GFP or mCherry expression plasmids: HEK293 (5×105) cells seeded in 6-well plate. Thirty-six hour post seeding, HEK cells were transfected with 1 μg of single plasmid containing EGFP, mCherry, EGFP-TgUPRT-WT, or EGFP-TgUPRT-Mut. Twenty-four hour post transfection, transiently transfected HEK cells were trypsinized and seeded into a 5 cm plate. Equal amounts of cells (approximately 2×106 in total) where 1×10^6 cells containing GFP or GFP-TgUPRT plasmids and 1×10^6 cells containing mCherry construct) were co-cultured. Three co-culture conditions are Condition (A): mCherry and EGFP, Condition (B): mCherry and EGFP-WT-TgUPRT, and Condition (C): mCherry and EGFP-3×MT-TgUPRT (pKN-CMV-EGFP-TgUPRT-Mut16 or -Mut17). […]

Row | SMILES | enrichment of GFP transcript in -UPRT cells (co-culture, RT-qPCR) | enrichment of GFP transcript, triple mutant cells compared to no UPRT cells ({}) [fold]
1 | C#Cc1c[nH]c(=O)[nH]c1=O [compound 1, 5-ethynylpyrimidine-2,4(1H,3H)-dione] | Background enrichment | –
2 | C=Cc1c[nH]c(=O)[nH]c1=O [compound 2, 5-Vinylpyrimidine-2,4(1H,3H)-dione] | – | ~100
